Values after ≈ are worked out from the molar mass of the structure shown.
How the values were obtained:
Assay type in all cases: cell-based
[1] = test system: SK-MEL-2 (human melanoma cancer cell line); experiment: Inhibition of human cancer cell line proliferation (SRB method), SK-MEL-2; conditions: SK-MEL-2 cells, 48 hours
Method: (§1) A549 (human lung cancer cell line), SK-OV-3 (human ovary cancer cell line), SK-MEL-2 ([…] melanoma cancer cell line), XF498 (Human CNS cancer cell line) and HCT-15 (human colic cancer cell line) were obtained from NCI of U.S. A. and subjected to subculture. The inhibition of the cancer cell line proliferation was determined by the SRB (sulforhodamine B) method in accordance with the procedure described by Skehan, P. et al. (J. Nat'l. Canc. Inst., 82, p1107, 1990) as follows.
(§2) 1) Each of the subcultured cancer cell lines was collected from the surface of the culture vessel, treated with a trypsin-CDTA solution, diluted, and added to each wall of a 96-well plat bottom microplate (Falcon Co.) in an amount of 5×10^3 (A549, HCT-15), 1×10^4 (SK-MEL-2, XF498) or 2×10^4 (SK-OV-3) cells/well, followed by incubation in a CO2 incubator to anchor the cells to the bottom surface. Then the culture medium was removed from the plate with suction, a solution containing a predetermined amount of a test sample (test solution) dissolved in culture medium was added to each well; and the mixture was futher cultured for 48 hours.
(§3) 2) Thereafter, the culture medium was removed from the plate with suction, and […] of 10% TCA (trichloro acetic acid) was added to each well. The plate was allowed to stand at room temperature for one hour to fix the cells, and was washed several times with distilled water to completely remove excess TCA and then dried.
(§4) 3) Each well was treated with 100 μl of an SRB staining solution (0.4% suforhodamine in 1% acetic acid) for 30 minutes, washed several times with 1% acetic acid to remove the remaining staining solution, and dried at room temperature.
(§5) 4) After adding 100 μl of 10 mM Trisma base solution (unbuffered) to each well, the plate was shaken with a titer plate shaker for 10 minutes to elute the staining solution from the cells, and the absorbance thereof at 520 nm was determined with a microplate reader.
(§6) 5) The degree of cancer cell proliferation (% cell growth, i.e., reverse of anticancer activity) of the cell line treated with the test solution was calculated by the following numerical formula wherein C is the number of cells in a control group treated with a culture medium instead of the test solution; Tz, the number of cells at time zero; and T, the number of cells treated with the test solution calculated based on measurement. Numerical formula 1 was used when Tz>T, numerical formula 2, when Tz<T.
(§7) Numerical formula 1=[(T−Tz)/(C−Tz)]×100
(§8) Numerical formula 2=[(T−Tz)/Tz]×100
(§9) 6) The amount of the samples needed for achieving 50% inhibition of the inhibiting cancer cell proliferation (ED50) was calculated from the observed degree of cell proliferation at various concentrations of the sample using the data regression of LOTUS program.

[2] = test system: HCT-15 (human colic cancer cell line); experiment: Inhibition of human cancer cell line proliferation (SRB method), HCT-15; conditions: HCT-15 cells, 48 hours
Method: as §1, §2, §3, §4, §5, §6, §7, §8, §9

[3] = test system: SK-OV-3 (human ovary cancer cell line); experiment: Inhibition of human cancer cell line proliferation (SRB method), SK-OV-3; conditions: SK-OV-3 cells, 48 hours
Method: as §1, §2, §3, §4, §5, §6, §7, §8, §9

[4] = test system: XF498 (human CNS cancer cell line); experiment: Inhibition of human cancer cell line proliferation (SRB method), XF498; conditions: XF498 cells, 48 hours
Method: as §1, §2, §3, §4, §5, §6, §7, §8, §9

[5] = test system: A549 (human lung cancer cell line); experiment: Inhibition of human cancer cell line proliferation (SRB method), A549; conditions: A549 cells, 48 hours
Method: as §1, §2, §3, §4, §5, §6, §7, §8, §9

Structure (SMILES): N.N.[Cl][Pt][Cl] [Cisplastine, reference compound]
- ED50 SK-MEL-2 [1]: 1.2 µg/mL
- ED50 HCT-15 [2]: 3.2 µg/mL
- ED50 SK-OV-3 [3]: 1.5 µg/mL
- ED50 XF498 [4]: 1.4 µg/mL
- ED50 A549 [5]: 1.8 µg/mL

Structure (SMILES): CC(C)=C1CCC(C)C(C)(COc2ccc3ccc(=O)oc3c2)C1CCC(=O)O (stereo not drawn) [Compound 1, galbanic acid]
- ED50 SK-MEL-2 [1]: 12.3 µg/mL (≈ 30.9 µM)
- ED50 HCT-15 [2]: 9.7 µg/mL (≈ 24.3 µM)
- ED50 SK-OV-3 [3]: 14.5 µg/mL (≈ 36.4 µM)
- ED50 XF498 [4]: 13.0 µg/mL (≈ 32.6 µM)
- ED50 A549 [5]: 8.9 µg/mL (≈ 22.3 µM)

Structure (SMILES): C/C(=C\COc1ccc2ccc(=O)oc2c1)CC/C=C(\C)CCC(O)C(C)(C)O (stereo not drawn) [Compound 2, karatavicinol]
- ED50 SK-MEL-2 [1]: 5.7 µg/mL (≈ 14.2 µM)
- ED50 HCT-15 [2]: 7.0 µg/mL (≈ 17.5 µM)
- ED50 SK-OV-3 [3]: 11.6 µg/mL (≈ 29 µM)
- ED50 XF498 [4]: 7.5 µg/mL (≈ 18.7 µM)
- ED50 A549 [5]: 5.6 µg/mL (≈ 14 µM)

Structure (SMILES): CC(C)=CCC/C(C)=C/CC/C(C)=C/COc1ccc2ccc(=O)oc2c1 [Compound 3, umbelliprenin]
- ED50 SK-MEL-2 [1]: 6.7 µg/mL (≈ 18.3 µM)
- ED50 HCT-15 [2]: 4.1 µg/mL (≈ 11.2 µM)
- ED50 SK-OV-3 [3]: 9.4 µg/mL (≈ 25.6 µM)
- ED50 XF498 [4]: 5.3 µg/mL (≈ 14.5 µM)
- ED50 A549 [5]: 8.9 µg/mL (≈ 24.3 µM)

Structure (SMILES): C=C1CC[C@@H](O)C(C)(C)C1CC/C(C)=C/COc1ccc2ccc(=O)oc2c1 (stereo partly drawn) [Compound 4, farnesiferol B]
- ED50 SK-MEL-2 [1]: 7.1 µg/mL (≈ 18.6 µM)
- ED50 HCT-15 [2]: 4.3 µg/mL (≈ 11.2 µM)
- ED50 SK-OV-3 [3]: 10.0 µg/mL (≈ 26.1 µM)
- ED50 XF498 [4]: 7.1 µg/mL (≈ 18.6 µM)
- ED50 A549 [5]: 7.2 µg/mL (≈ 18.8 µM)

Structure (SMILES): C/C(=C\COc1ccc2ccc(=O)oc2c1)CC[C@@H]1C(C)(C)[C@H]2CC[C@]1(C)O2 [Compound 5, farnesiferol C]
- ED50 SK-MEL-2 [1]: 3.9 µg/mL (≈ 10.2 µM)
- ED50 HCT-15 [2]: 4.3 µg/mL (≈ 11.2 µM)
- ED50 SK-OV-3 [3]: 7.2 µg/mL (≈ 18.8 µM)
- ED50 XF498 [4]: 5.4 µg/mL (≈ 14.1 µM)
- ED50 A549 [5]: 4.2 µg/mL (≈ 11 µM)
